Laboratory results taken from ChEMBL document CHEMBL1135134, “Novel phthalimide derivatives, designed as leukotriene D(4) receptor antagonists” (Bioorg Med Chem Lett, 2002).

What was measured:
[1] = organism: Cavia porcellus; test: Inhibitory contractile effect of compound in guinea-pig tracheal strips induced by LTD4 (100 nM) (% contraction, obtained in the vehicle presence 100.0%); assay type: functional, Trachea
[2] = organism: Cavia porcellus; test: Inhibitory contractile effect of compound in guinea-pig tracheal strips induced by LTD4 (100 nM) (% inhibition obtained by comparison with control group); assay type: functional, Trachea
[3] = organism: Cavia porcellus; test: 50% inhibitory concentration on the LTD4 (100 nM) induced contraction of guinea-pig tracheal strip bioassay; assay type: functional; conditions: Trachea
[4] = organism: Cavia porcellus; test: Maximum effect on the LTD4 (100 nM) induced contraction of guinea-pig tracheal strips bioassay; assay type: functional; conditions: Trachea

`CC(Oc1ccc(CCN2C(=O)c3ccccc3C2=O)cc1)C(=O)O` (configuration not stated) was tested, and the Contraction [1] was 91.4% and the Inhibition [2] was 8.6%.
`O=C(O)COc1ccc(CCN2C(=O)c3ccccc3C2=O)cc1` gave a Contraction [1] of 101.5% and an Inhibition [2] of -1.5%.
In the case of `O=C1c2ccccc2C(=O)N1CCc1ccc(OCCCc2nn[nH]n2)cc1`, the Contraction [1] is reported as 52.4%, the IC50 [3] is reported as 31.2 µM and the Inhibition [2] is reported as 47.6%. For the same compound, the Emax [4] was 100%.
With `O=C(O)CCCOc1ccc(CCN2C(=O)c3ccccc3C2=O)cc1` the Contraction [1] was 80.3% and the Inhibition [2] was 19.7%.
With `O=C(O)CCCCOc1ccc(CCN2C(=O)c3ccccc3C2=O)cc1` the Contraction [1] was 97.6% and the Inhibition [2] was 2.4%.
In the case of `O=C(O)c1ccc(COc2ccc(CCN3C(=O)c4ccccc4C3=O)cc2)cc1`, the Contraction [1] is reported as 93.7% and the Inhibition [2] is reported as 6.3%.
Compound `O=C(O)CCCC(=O)Oc1ccc(CCN2C(=O)c3ccccc3C2=O)cc1` has a Contraction [1] of 73.9% and an Inhibition [2] of 26.1%.
With `COc1cc(C(=O)NS(=O)(=O)c2ccccc2C)ccc1Cc1cn(C)c2ccc(NC(=O)OC3CCCC3)cc12` [ZAFIRLUKAST] the IC50 [3] was 0.00103 µM.
